Source: PubChem BioAssay (NCI)
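Test compounds were applied to cells in 96-well plates for 48 hours at 5 doses. The concentration for full growth arrest is given as TGI.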

What was measured:
Test in all cases: inhibition of tumour cell growth, NCI panel, 48 h
[1] = tested on: U251 CNS
[2] = tested on: A498 renal
[3] = tested on: MOLT-4 leukemia
[4] = tested on: SNB-75 CNS
[5] = tested on: LXFL 529 NSCLC
[6] = tested on: UO-31 renal
[7] = tested on: KM20L2 colon
[8] = tested on: DLD-1 colon
[9] = tested on: HOP-18 NSCLC
[10] = tested on: MCF7 breast
[11] = tested on: HS 578T breast
[12] = tested on: BT-549 breast

## CCc1ccccc1NC(=O)CCc1nc(=S)[nH][nH]1
[1]
  TGI: > 100 µM
[2]
  TGI: > 100 µM
[3]
  TGI: > 100 µM
[4]
  TGI: > 100 µM
[5]
  TGI: > 100 µM
[6]
  TGI: > 100 µM
[7]
  TGI: > 100 µM
[8]
  TGI: > 100 µM

## COc1ccc(C2(CN(C)C)COc3cc(OC)c(OC)cc3C2=O)cc1OC (stereo not given)
[1]
  TGI: > 100 µM
[2]
  TGI: > 100 µM
[3]
  TGI: > 100 µM
[9]
  TGI: > 100 µM
[4]
  TGI: > 100 µM
[5]
  TGI: 48.8 µM
[6]
  TGI: > 100 µM
[7]
  TGI: > 100 µM
[8]
  TGI: 44.6 µM

## CN1C(c2ccccc2)CC(=Nc2ccccc2)CC1c1ccccc1 (stereo not given)
[1]
  TGI: 19.6 µM
[3]
  TGI: 28.7 µM
[4]
  TGI: 50.4 µM
[5]
  TGI: 16.4 µM
[6]
  TGI: 47.8 µM
[7]
  TGI: 26.5 µM
[8]
  TGI: 24.2 µM

## COc1ncnc2c(NC3OC(CO)C(O)C3O)ncnc12 (stereo not given)
[1]
  TGI: > 100 µM
[2]
  TGI: 1.58 µM
[3]
  TGI: 1.94 µM
[10]
  TGI: 0.443 µM
[4]
  TGI: 6.38 µM
[5]
  TGI: 83.4 µM
[11]
  TGI: 4.86 µM
[6]
  TGI: > 21.9 µM
[7]
  TGI: > 100 µM
[8]
  TGI: 33.7 µM

## O=[N+]([O-])c1ccc(Cc2nc3ccccc3s2)cc1
[1]
  TGI: > 100 µM
[2]
  TGI: > 100 µM
[3]
  TGI: > 100 µM
[9]
  TGI: > 100 µM
[4]
  TGI: > 100 µM
[5]
  TGI: > 100 µM
[6]
  TGI: > 100 µM
[7]
  TGI: > 100 µM
[8]
  TGI: > 100 µM

## O=C(CC(=O)Nc1ccc(Cl)cc1)NNCC(=O)Nc1nc(-c2ccccc2)cs1
[1]
  TGI: > 100 µM
[3]
  TGI: > 100 µM
[9]
  TGI: > 100 µM
[4]
  TGI: > 100 µM
[5]
  TGI: > 100 µM
[7]
  TGI: > 100 µM
[8]
  TGI: > 100 µM

## C/C(=N\NC(N)=S)c1ccc2c(c1)OCO2
[1]
  TGI: > 100 µM
[2]
  TGI: > 100 µM
[3]
  TGI: > 100 µM
[9]
  TGI: > 100 µM
[4]
  TGI: > 100 µM
[5]
  TGI: > 100 µM
[6]
  TGI: > 100 µM
[7]
  TGI: > 100 µM
[8]
  TGI: > 100 µM

## N=C(c1ccccc1)N1CCCCC1
[1]
  TGI: > 100 µM
[9]
  TGI: > 100 µM
[4]
  TGI: > 100 µM
[5]
  TGI: > 100 µM
[6]
  TGI: > 100 µM
[7]
  TGI: > 100 µM
[8]
  TGI: > 100 µM

## O=C1C(NCCO)=C(N2CC2)C(=O)C(NCCO)=C1N1CC1
[1]
  TGI: > 71.6 µM
[2]
  TGI: > 100 µM
[3]
  TGI: 58.5 µM
[9]
  TGI: > 100 µM
[10]
  TGI: > 100 µM
[12]
  TGI: > 100 µM
[4]
  TGI: > 100 µM
[5]
  TGI: > 92.9 µM
[11]
  TGI: > 100 µM
[6]
  TGI: > 88 µM
[7]
  TGI: > 100 µM
[8]
  TGI: > 68.8 µM

## COC(=O)c1nc(-c2ccc(Cl)c(Cl)c2)nc2ccccc12
[1]
  TGI: > 100 µM
[2]
  TGI: > 73.7 µM
[3]
  TGI: > 100 µM
[9]
  TGI: 4.99 µM
[4]
  TGI: 11.3 µM
[5]
  TGI: > 100 µM
[6]
  TGI: > 100 µM
[7]
  TGI: > 100 µM
[8]
  TGI: > 100 µM

## C/C(=N\NC(=S)N(C)C)c1ncc[nH]1
[1]
  TGI: 5.22 µM
[2]
  TGI: 16.7 µM
[3]
  TGI: 24 µM
[9]
  TGI: > 100 µM
[4]
  TGI: 85.9 µM
[5]
  TGI: > 100 µM
[6]
  TGI: 7.31 µM
[7]
  TGI: > 100 µM
[8]
  TGI: > 100 µM

## O=C1CCC(c2nc3ccccc3o2)C(=O)N1 (stereo not given)
[1]
  TGI: > 100 µM
[2]
  TGI: > 100 µM
[3]
  TGI: > 100 µM
[9]
  TGI: > 100 µM
[4]
  TGI: > 100 µM
[5]
  TGI: > 100 µM
[6]
  TGI: > 100 µM
[7]
  TGI: > 100 µM
[8]
  TGI: > 100 µM
